Results as given in PubChem BioAssay AID1918955 (Molecular Pharmacology Branch, DTP, NCI, 2023).

Tested on: NCI/ADR-RES complex spheroid viability
Assay: Anticancer human tumor NCI/ADR-RES cell line growth inhibition;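 note: spheroids exposed to compounds for 7 days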;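 for viability, T/C: 100% = DMSO vehicle treated spheroids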
Conditions: for IC50: curve of first compound; for viability, T/C: stronger effect = lower value
Procedure, shortened: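 Drug combinations with the LSD1 inhibitor iadademstat tested on tumor cells co-cultured as spheroids with endothelial cells and mesenchymal stem cells. Concentrations descended in half-log increments from clinical Cmax or 10 microM.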

[1] = second compound 0.1 µM, first compound 0.0316 µM
[2] = second compound 0.1 µM, first compound 0.1 µM
[3] = second compound 0.1 µM, first compound 0.316 µM
[4] = second compound 0.1 µM, first compound 1 µM
[5] = second compound 0.316 µM, first compound 0.0316 µM
[6] = second compound 0.316 µM, first compound 0.1 µM
[7] = second compound 0.316 µM, first compound 0.316 µM
[8] = second compound 0.316 µM, first compound 1 µM
[9] = second compound 1 µM, first compound 0.0316 µM
[10] = second compound 1 µM, first compound 0.1 µM
[11] = second compound 1 µM, first compound 0.316 µM
[12] = second compound 1 µM, first compound 1 µM
[13] = second compound 3.16 µM, first compound 0.0316 µM
[14] = second compound 3.16 µM, first compound 0.1 µM
[15] = second compound 3.16 µM, first compound 0.316 µM
[16] = second compound 3.16 µM, first compound 1 µM
[17] = second compound 10 µM, first compound 0.0316 µM
[18] = second compound 10 µM, first compound 0.1 µM
[19] = second compound 10 µM, first compound 0.316 µM
[20] = second compound 10 µM, first compound 1 µM
[21] = second compound 0.1 µM, first compound 3.16 µM
[22] = second compound 0.1 µM, first compound 10 µM
[23] = second compound 0.316 µM, first compound 3.16 µM
[24] = second compound 0.316 µM, first compound 10 µM
[25] = second compound 1 µM, first compound 3.16 µM
[26] = second compound 1 µM, first compound 10 µM
[27] = second compound 3.16 µM, first compound 3.16 µM
[28] = second compound 3.16 µM, first compound 10 µM
[29] = second compound 10 µM, first compound 3.16 µM
[30] = second compound 10 µM, first compound 10 µM

Compound	IC50 (second compound 0.1 µM) [µM]	IC50 (second compound 0.316 µM) [µM]	IC50 (second compound 1 µM) [µM]	IC50 (second compound 3.16 µM) [µM]	IC50 (second compound 10 µM) [µM]	viability, T/C [1] [%]	viability, T/C [2] [%]	viability, T/C [3] [%]	viability, T/C [4] [%]	viability, T/C [5] [%]	viability, T/C [6] [%]	viability, T/C [7] [%]	viability, T/C [8] [%]	viability, T/C [9] [%]	viability, T/C [10] [%]	viability, T/C [11] [%]	viability, T/C [12] [%]	viability, T/C [13] [%]	viability, T/C [14] [%]	viability, T/C [15] [%]	also measured
COc1cc(Nc2ncc3c(n2)-c2ccc(Cl)cc2C(c2c(F)cccc2OC)=NC3)ccc1C(=O)O + NC1CC1c1ccc(-c2cccc(O)c2)cc1	0.0169	0.0183	0.0176	0.0195	0.0171	32.5	16	15.4	14.4	36.7	18	15.7	17.3	38.1	19.7	14.4	12	41.8	19.4	15.9	viability, T/C (second compound 0.1 µM, first compound 0.00316 µM): 86%; viability, T/C (second compound 0.1 µM, first compound 0.01 µM): 64.9%; viability, T/C (second compound 0.316 µM, first compound 0.00316 µM): 93.5%; viability, T/C (second compound 0.316 µM, first compound 0.01 µM): 65.8%; viability, T/C (second compound 1 µM, first compound 0.00316 µM): 89.7%; viability, T/C (second compound 1 µM, first compound 0.01 µM): 62.2%; viability, T/C (second compound 3.16 µM, first compound 0.00316 µM): 88.6%; viability, T/C (second compound 3.16 µM, first compound 0.01 µM): 63.6%; viability, T/C [16]: 11.8%; viability, T/C (second compound 10 µM, first compound 0.00316 µM): 79.2%; viability, T/C (second compound 10 µM, first compound 0.01 µM): 57.8%; viability, T/C [17]: 41.2%; viability, T/C [18]: 23.6%; viability, T/C [19]: 13%; viability, T/C [20]: 11.9%
CC1COCCN1c1cc(C2(S(C)(=N)=O)CC2)nc(-c2ccnc3[nH]ccc23)n1 (stereo not given) + NC1CCC(NC2CC2c2ccccc2)CC1	> 10	> 10	8.56	7.93	5.24	98.9	104	105	95.6	101	98.8	102	94.5	104	102	97.6	97.5	96.4	96.8	94.6	viability, T/C [21]: 82.8%; viability, T/C [22]: 50.5%; viability, T/C [23]: 71.8%; viability, T/C [24]: 55.5%; viability, T/C [25]: 84.5%; viability, T/C [26]: 44.2%; viability, T/C [16]: 84.4%; viability, T/C [27]: 68.6%; viability, T/C [28]: 45%; viability, T/C [17]: 98.4%; viability, T/C [18]: 92.7%; viability, T/C [19]: 89.7%; viability, T/C [20]: 83.8%; viability, T/C [29]: 61.3%; viability, T/C [30]: 34.6%
O=C(c1cc(Cc2n[nH]c(=O)c3ccccc23)ccc1F)N1CCN(C(=O)C2CC2)CC1 + NC1CC1c1ccc(-c2cccc(O)c2)cc1	> 10	> 10	> 10	> 10	> 10	112	108	107	105	111	115	108	103	106	106	103	104	110	111	103	viability, T/C [21]: 99.5%; viability, T/C [22]: 91.8%; viability, T/C [23]: 106%; viability, T/C [24]: 95%; viability, T/C [25]: 99.4%; viability, T/C [26]: 80.1%; viability, T/C [16]: 97.3%; viability, T/C [27]: 96.7%; viability, T/C [28]: 88.6%; viability, T/C [17]: 91.8%; viability, T/C [18]: 95.3%; viability, T/C [19]: 96.4%; viability, T/C [20]: 94.4%; viability, T/C [29]: 88.7%; viability, T/C [30]: 74.5%
